Measured values as given in EP4813991A1 (iLeadBMS Co., Ltd., priority 2023, dated 2025).

Tested on: NCI-H358 cells
Assay: Lung cancer cell proliferation inhibitory activity, NCI-H358
Assay type: cell-based
Conditions: Homo sapiens, 72 hours, Cell Counting Kit-8, relative IC50
Procedure: Experiments were performed using three types of lung cancer cell lines to measure the cell proliferation inhibitory ability of the compounds of the present invention. NCI-H23 and NCI-H358 cells were dispensed into a 96-well plate at 100 µL of cell suspension per well using RPM11640 medium containing 10 % FBS and 1 % PS, followed by incubation in a cell incubator at 37 °C and 5 % CO2. A427 cells were dispensed into a 96-well plate at 100 µL of cell suspension per well using DMEM medium containing 10 % FBS and 1 % PS, followed by incubation in a cell incubator at 37 °C and 5 % CO2. The next day, each Example compound (such as Example 8) dissolved and diluted in DMSO across 10 concentration ranges and a DMSO control group were treated on the cells for 72 hours. After completion of the compound treatment, 10 µL of Cell Counting Kit-8 (Dojindo) reagent was added to each well of the 96-well plate, followed by incubation for 2 hours. After inserting the 96-well plate into an Envision plate reader […], luminescence signals were measured. Relative IC50 values were calculated by fitting a dose-response curve using Graphpad PRISM software.
The lung cancer cell proliferation inhibitory activities of the Example compounds measured by the method described above were evaluated according to the following criteria, and the results are presented in Table 17.

IC50: ≤ 200 nM
SMILES: CN1CCN(c2cc(NCc3nc4ccc(F)c(F)c4[nH]3)c3ncc(C(F)(F)F)n3n2)CC1 [Example 8, N-((6,7-difluoro-1H-benzo[d]imidazol-2-yl)methyl)-6-(4-methylpiperazin-1-yl)-3-(trifluoromethyl)imidazo[1,2-b]pyridazin-8-amine]
